Read-outs that look alike come from different tables or passages of the source.
Key:
A375 = experiment: Cytotoxicity IC50 on A375; assay type: cell-based; details: Homo sapiens
Text: (§1) ND indicates IC50 values that could not be determined at the concentrations tested. The presence of the antibody M53's target on the cell surface as determined by M53 cell staining is indicated as Yes/No. The origin of the cell line and disease type for each cell line is also indicated.
Parent CEN09-106, CEN09-104 and CEN10-126 drugs were all linked to antibody M53 via the PEG24 linker as described in Example 5. The intermediate drug-PEG24's were capped with cysteine as described in Example 5. Cytotoxicity of the EDC's and the drug-PEG24 linkers were evaluated in vitro on the NSCLC line A549 and malignant melanoma cell line A375 as described in Example 5.

A549 = experiment: In vitro cell proliferation assay (CellTiter-Glo, 3 days) A549; assay type: cell-based, human; details: for activity decrease when attached to the PEG24 linker and capped, compared to the free uncoupled agent: Example 15; for IC50: Homo sapiens
Experimental: (§2) In vitro cell proliferation assays. […] All cell lines were maintained in complete media [RPMI medium 1640 supplemented with 10% (wt/vol) fetal bovine serum and Gentamycin (50 μg/ml)]. Cells were plated at a density of 1250 (H460 and A549) or 1825 (HCT15 and MCF7) cells per well of each 384-well white tissue culture treated microtiter plate in 20 uls complete media, and then were grown for 24 hour at 37° C. with 7% CO2 in a humidified incubator before agent/conjugate addition. In a separate 96-well plate, agent and antibody conjugate (in PBS) stocks were serially diluted in complete media at 5× final working concentrations, and 5 ul added to the cells used in the assay. Cells were incubated with the agent/conjugate for 3 days before cell viability testing. Cell viability testing used the CellTiter-Glo luminescent cell viability assay (Promega, Madison, Wis.). IC50 values of the agents to each cell line were determined using GraphPad Prism 5 software.
For the experiment below, α-Fl-CEN10-105 (also termed α-Fl-106), CEN10-105-Cys (also termed PEG24106) and M53-PEG24-CEN09-106 were varied as indicated in FIG. 11. […] All were assayed in the A549 cell proliferation assay. Cells were maintained in complete media [RPMI medium 1640 supplemented with 10% (wt/vol) fetal bovine serum and Gentamycin (50 μg/ml)]. Cells were plated at a density of 1250 per well of a 384-well white tissue culture treated microtiter plate in 20 uls complete media, then were grown for 24 hour at 37° C. with 7% CO2 in a humidified incubator before agent/conjugate addition. In a separate 96-well plate, agent and antibody conjugate (in PBS) stocks were serially diluted in complete media at 5× final working concentrations, and 5 uls added to the cells used in the assay. For the competition assay (M53 Comp) M53 was serially diluted from 500 to 0.11 nM in the presence of 5 nM PEG24-106, and 5 ul of these dilutions were added to cells used in this assay. Cells were incubated with the agent/conjugate for 3 days before cell viability testing. Cell viability testing used the CellTiterGlo luminescent cell viability assay (Promega, Madison, Wis.).
Cytotoxicity of the above EDCs were evaluated in vitro on the NSCLC line A549. Cells were maintained in complete media [RPMI medium 1640 supplemented with 10% (wt/vol) fetal bovine serum and Gentamycin (50 μg/ml)]. Cells were plated at a density of 1250 per well of a 384-well white tissue culture treated microtiter plate in 20 uls complete media, then were grown for 24 hour at 37° C. with 7% CO2 in a humidified incubator before conjugate addition. In a separate 96-well plate, ADC (in PBS) stocks were serially diluted in complete media at 5× final working concentrations, and 5 uls added to the cells used in the assay. Cells were incubated in the presence of the compounds for 72 hrs prior to cell viability testing. Cell viability testing was performed using the CellTiter-Glo luminescent cell viability assay (Promega, Madison, Wis.).
Cytotoxicity of the above compounds were evaluated in vitro on the NSCLC line A549. Cells were maintained in complete media [RPMI medium 1640 supplemented with 10% (wt/vol) fetal bovine serum and Gentamycin (50 μg/ml)]. Cells were plated at a density of 1250 per well of a 384-well white tissue culture treated microtiter plate in 20 uls complete media, then were grown for 24 hour at 37° C. with 7% CO2 in a humidified incubator before agent addition.

HCT15 = experiment: In vitro cell proliferation assay (CellTiter-Glo, 3 days) HCT15; assay type: cell-based; details: Homo sapiens
Experimental: as §2

H460 = experiment: In vitro cell proliferation assay (CellTiter-Glo, 3 days) H460; assay type: cell-based; details: Homo sapiens
Experimental: as §2

HT29 = experiment: Cytotoxicity IC50 on HT29; assay type: cell-based; details: Homo sapiens, HT-29; Example 9
Text: as §1

MALME-3M = experiment: Cytotoxicity IC50 on MALME-3M; assay type: cell-based; details: Homo sapiens, Example 9
Text: as §1

MCF10a = experiment: Cytotoxicity IC50 on MCF10a; assay type: cell-based; details: Homo sapiens, MCF-10A; Example 9
Text: as §1

A431 = experiment: Cytotoxicity IC50 on A431; assay type: cell-based; details: Homo sapiens, A-431; Example 9
Text: as §1

MEL2 = experiment: Cytotoxicity IC50 on MEL2; assay type: cell-based; details: Homo sapiens, Example 9
Text: as §1

MB-231 = experiment: Cytotoxicity IC50 on MB-231; assay type: cell-based; details: Homo sapiens; Example 9
Text: as §1

MCF7 = experiment: In vitro cell proliferation assay (CellTiter-Glo, 3 days) MCF7; assay type: cell-based; details: Homo sapiens
Experimental: as §2

SKOV3 = experiment: Cytotoxicity IC50 on SKOV3; assay type: cell-based; details: Homo sapiens, SK-OV-3; Example 9
Text: as §1

A549 cells = experiment: In vitro cell proliferation assay, Example 4 (CellTiter-Glo, 2 days); assay type: cell-based, human
Experimental: In vitro cell proliferation assays. […] All cell lines were maintained in complete media [RPMI medium 1640 supplemented with 10% (wt/vol) fetal bovine serum and Gentamycin ([…])]. Cells were plated at a density of 5,000 cells per well of each 96-well black tissue culture treated microtiter plate in 95 ul complete media, then were grown for 24 hour at 37° C. with 7% CO2 in a humidified incubator before agent/conjugate addition. In a separate 96-well plate, agent (in DMSO) and antibody conjugate (in PBS) stocks were serially diluted in complete media at 20× final working concentrations, and 5 ul added to the cells used in the assay. Doxorubicin was used as the control to monitor the behavior of the cell lines used. Cells were incubated with the agent/conjugate for 2 days before luminescence reading. Cell viability testing used the CellTiter-Glo luminescent cell viability assay (Promega, Madison, Wis.).

[1] = A549, read-out: IC50 A549, Example 15

`C[C@]12CCC(=NNC(=O)CN)C=C1CCC1C2CC[C@]2(C)[C@@H](c3ccc(=O)oc3)CC[C@]12O` (stereo partly drawn) [CEN09-104, glycinyl hydrazine of scillarenone] was tested, and the IC50 (A375; A-375, Example 15) was 0.23 µM, the “activity decrease when attached to the PEG24 linker and capped, compared to the free uncoupled agent” value (A549) was ~5 fold and the IC50 (A549; [1]) was 0.092 µM.
For `C[C@]12CC[C@H](OC3OC[C@H](N)[C@@H](O)[C@@H]3O)C=C1CCC1C2CC[C@]2(C)[C@@H](c3ccc(=O)oc3)CC[C@]12O` (stereo partly drawn) [CEN09-106, Scillarenin-4-amino-4-deoxy-L-xylopyranoside], the IC50 (HCT15; HCT-15, 72 h, read-out: IC50 HCT15) was 0.00235 µM, the IC50 (HCT15; HCT-15, read-out: IC50 HCT15) was 0.0023 µM and the IC50 (H460; NCI-H460, 72 h, read-out: IC50 H460) was 0.00131 µM. The IC50 (H460; NCI-H460, read-out: IC50 H460) was 0.0016 µM, the IC50 (HT29) was 0.0031 µM and the IC50 (A375; A-375, Example 9) was 0.0032 µM. The IC50 (A375; A-375, Example 15) was 0.0014 µM, the IC50 (MALME-3M) was 0.0054 µM and the IC50 (MCF10a) was 0.0066 µM. For the same molecule, the IC50 (A431) was 0.002 µM, the IC50 (MEL2) was 0.0043 µM and the IC50 (MB-231) was 0.007 µM. The IC50 (MCF7; MCF7, 72 h, read-out: IC50 MCF7) was 0.00188 µM, the IC50 (MCF7; MCF7, read-out: IC50 MCF7) was 0.0026 µM and the IC50 (SKOV3) was 0.0053 µM. The IC50 (A549; A549, 72 h, Example 14, cysteine-capped linker forms, A549, 72 hrs) was 0.00046 µM, the IC50 (A549; A549, 72 h, read-out: IC50 A549, 3 days, CellTiter-Glo) was 0.00056 µM and the IC50 (A549; A549, read-out: IC50 A549, Example 9) was 0.0007 µM. It also gave an IC50 (A549; [1]) of 0.0005 µM.
With `C[C@]12CC[C@H](O[C@@H]3OC(CO)[C@@H](O)[C@H](O)C3N)C=C1CCC1C2CC[C@]2(C)[C@@H](c3ccc(=O)oc3)CC[C@]12O` (stereo partly drawn) [CEN10-126, scillarenin-2-deoxy-2-amino-β-D-glucopyranoside] the “activity decrease when attached to the PEG24 linker and capped, compared to the free uncoupled agent” value (A549) was ~300 fold and the IC50 (A549; [1]) was 0.0013 µM.
`CC1=C2C[C@H]3[C@@H](CC=C4C[C@@H](O)CC[C@@]43C)[C@@H]2CC[C@]12O[C@@H]1C[C@H](C)CN(CCCCCCNC(=O)CCOCCOCCOCCOCCOCCOCCOCCOCCOCCOCCOCCOCCOCCOCCOCCOCCOCCOCCOCCOCCOCCOCCOCCOCCNC(=O)CCN3C(=O)C=CC3=O)C1[C@H]2C` (stereo partly drawn) [CEN10-130] showed an IC50 (A549; A549, Example 10, working concentrations 0.9 to 1000 uM, read-out: IC50 A549) of 244 µM.
For `N[C@@H](C=O)[C@@H](O)[C@H](O)[C@H](O)CO` [GlcNH2, 2-amino-2-deoxy-D-Glucose, reference compound], the IC50 (H460; NCI-H460, read-out: IC50 H460) was > 1000 µM and the IC50 (A549; A549, read-out: IC50 A549, Example 11, 457 nM to 1 mM) was > 1000 µM.
`CC1=C2C[C@H]3[C@@H](CC=C4C[C@@H](O)CC[C@@]43C)[C@@H]2CC[C@]12O[C@@H]1C[C@H](C)CN[C@H]1[C@H]2C` [cyclopamine, Cyclopamine, reference compound] showed an IC50 (A549; A549, read-out: IC50 A549) of 392 µM.
With “scillarenin neo-4-amino-4-deoxy-L-xylopyranoside [CEN08-243]” the “A549 cell cytotoxicity (in words)” value (A549 cells; within the testing concentration range, antibodies alone = reduced antibody with linker, no agent) was “display cytotoxic activity”.
With “scillarenin-4-amino-4-deoxy-L-ribopyranoside [CEN09-107]” the “activity of conjugate compared with free agent (in words)” value (A549 cells; A549, FIGS. 3-6) was “more active when not conjugated to L15”.
